This assay deals with MCH receptor (Homo sapiens, UniProt Q99705). Kind of assay: High throughput functional screening FLIPR/FDSS6000: inhibition of MCH-evoked intracellular Ca2+ changes. The class given is cell-based. To be noted: class by percent of control at 10^−7 M or by IC50; read-out: class. In short, it runs like this:
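Cells expressing constitutively active MCH receptor, loaded with 4 μM Fluo4-AM for 1 h at 37 °C, were pretreated 3 min with compound, then challenged with MCH (50 nM for antagonist testing). MCH-evoked [Ca2+]i transients followed by FLIPR or FDSS (ex 488/em 530 nm) over 290 s.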

The values that follow come from US20070010671A1, “Novel quinazoline derivatives and methods of treatment related to the use thereof” (priority 2003, published 2007).

Molecules are shown by their SMILES. pIC50: −log10 of the molar value. Some results are limits rather than exact numbers.

Turning to `CN(C)c1nc(N[C@H]2CC[C@@H](NC(=O)c3ccnc(Oc4ccc(Cl)cc4)c3)CC2)nc2ccccc12` [Example 1074, 2-(4-chlorophenoxy)-N-(cis-4-{[4-(dimethylamino)quinazolin-2-yl]amino}cyclohexyl)isonicotinamide], the pIC50 was more than 7.30. Turning to `CN(C)c1nc(N[C@H]2CC[C@@H](NC(=O)COc3ccc(Cl)c(Cl)c3)CC2)nc2ccccc12` [Example 1075, 2-(3,4-dichlorophenoxy)-N-(cis-4-{[4-(dimethylamino)quinazolin-2-yl]amino}cyclohexyl)acetamide], the pIC50 was more than 7.30. Take `Cc1ccc(OCC(=O)N[C@H]2CC[C@@H](Nc3nc(N(C)C)c4ccccc4n3)CC2)cc1C` [Example 1076, N-(cis-4-{[4-(dimethylamino)quinazolin-2-yl]amino}cyclohexyl)-2-(3,4-dimethylphenoxy)acetamide]: the pIC50 is less than 6.70. Take `CN(C)c1nc(N[C@H]2CC[C@@H](NC(=O)COc3cc(Cl)c(Cl)cc3Cl)CC2)nc2ccccc12` [Example 1077, N-(cis-4-{[4-(dimethylamino)quinazolin-2-yl]amino}cyclohexyl)-2-(2,4,5-trichlorophenoxy)acetamide]: the pIC50 is 6.70 to 7.30. The value for `CN(C)c1nc(N[C@H]2CC[C@@H](NC(=O)COc3ccc(F)cc3)CC2)nc2ccccc12` [Example 1078, N-(cis-4-{[4-(dimethylamino)quinazolin-2-yl]amino}cyclohexyl)-2-(4-fluorophenoxy)acetamide] was more than 7.30; that for `Cc1cccc(OCC(=O)N[C@H]2CC[C@@H](Nc3nc(N(C)C)c4ccccc4n3)CC2)c1` [Example 1079, N-(cis-4-{[4-(dimethylamino)quinazolin-2-yl]amino}cyclohexyl)-2-(3-methylphenoxy)acetamide] was more than 7.30. For the molecule `COc1ccc(OCC(=O)N[C@H]2CC[C@@H](Nc3nc(N(C)C)c4ccccc4n3)CC2)cc1` [Example 1080, N-(cis-4-{[4-(dimethylamino)quinazolin-2-yl]amino}cyclohexyl)-2-(4-methoxyphenoxy)acetamide], the pIC50 is more than 7.30. Consider `COc1cccc(OCC(=O)N[C@H]2CC[C@@H](Nc3nc(N(C)C)c4ccccc4n3)CC2)c1` [Example 1081, N-(cis-4-{[4-(dimethylamino)quinazolin-2-yl]amino}cyclohexyl)-2-(3-methoxyphenoxy)acetamide], for which the pIC50 is more than 7.30. As to `COc1ccccc1OCC(=O)N[C@H]1CC[C@@H](Nc2nc(N(C)C)c3ccccc3n2)CC1` [Example 1082, N-(cis-4-{[4-(dimethylamino)quinazolin-2-yl]amino}cyclohexyl)-2-(2-methoxyphenoxy)acetamide], the pIC50 is 6.70 to 7.30. With `CN(C)c1nc(N[C@H]2CC[C@@H](NC(=O)COc3ccc(Cl)cc3Cl)CC2)nc2ccccc12` [Example 1083, 2-(2,4-dichlorophenoxy)-N-(cis-4-{[4-(dimethylamino)quinazolin-2-yl]amino}cyclohexyl)acetamide], the pIC50 is 6.70 to 7.30.

`CN(C)c1nc(N[C@H]2CC[C@@H](NC(=O)c3ccc(OCc4ccccc4)cc3)CC2)nc2ccccc12` [Example 1084, 4-(benzyloxy)-N-(cis-4-{[4-(dimethylamino)quinazolin-2-yl]amino}cyclohexyl)benzamide]: the pIC50 is less than 6.70. For the molecule `CN(C)c1nc(N[C@H]2CC[C@@H](NC(=O)CNc3ccccc3)CC2)nc2ccccc12` [Example 1085, N-(cis-4-{[4-(dimethylamino)quinazolin-2-yl]amino}cyclohexyl)-N2-phenylglycinamide], the pIC50 is more than 7.30.

Turning to `Cc1cccc(NCC(=O)N[C@H]2CC[C@@H](Nc3nc(N(C)C)c4ccccc4n3)CC2)c1` [Example 1086, N-(cis-4-{[4-(dimethylamino)quinazolin-2-yl]amino}cyclohexyl)-N2-(3-methylphenyl)glycinamide], the pIC50 is more than 7.30. With `CN(C)c1nc(N[C@H]2CC[C@@H](NC(=O)CNc3cccc(F)c3)CC2)nc2ccccc12` [Example 1087, N-(cis-4-{[4-(dimethylamino)quinazolin-2-yl]amino}cyclohexyl)-N2-(3-fluorophenyl)glycinamide], the pIC50 was more than 7.30. For the molecule `CN(C)c1nc(N[C@H]2CC[C@@H](NC(=O)CN(C)c3ccccc3)CC2)nc2ccccc12` [Example 1088, N-(cis-4-{[4-(dimethylamino)quinazolin-2-yl]amino}cyclohexyl)-N2-methyl-N2-phenylglycinamide], the pIC50 was more than 7.30. Turning to `CN(C)c1nc(N[C@H]2CC[C@@H](NC(=O)CNc3ccc(Cl)cc3)CC2)nc2ccccc12` [Example 1089, N2-(4-chlorophenyl)-N-(cis-4-{[4-(dimethylamino)quinazolin-2-yl]amino}cyclohexyl)glycinamide], the pIC50 is more than 7.30. For the molecule `COc1cccc(NCC(=O)N[C@H]2CC[C@@H](Nc3nc(N(C)C)c4ccccc4n3)CC2)c1` [Example 1090, N-(cis-4-{[4-(dimethylamino)quinazolin-2-yl]amino}cyclohexyl)-N2-(3-methoxyphenyl)glycinamide], the pIC50 was more than 7.30. To `CN(C)c1nc(N[C@H]2CC[C@@H](NC(=O)CNc3ccc(F)cc3)CC2)nc2ccccc12` [Example 1091, N-(cis-4-{[4-(dimethylamino)quinazolin-2-yl]amino}cyclohexyl)-N2-(4-fluorophenyl)glycinamide] belongs more than 7.30; to `CN(C)c1nc(N[C@H]2CC[C@@H](CNC(=O)[C@@H](O)c3cccc(Cl)c3)CC2)nc2ccccc12` [Example 1100, (2S)-2-(3-chlorophenyl)-N-[(cis-4-{[4-(dimethylamino)-quinazolin-2-yl]amino}cyclohexyl)methyl]-2-hydroxyacetamide], 6.70 to 7.30; to `CN(C)c1nc(N[C@H]2CC[C@@H](CNC(=O)[C@H](O)c3ccccc3Cl)CC2)nc2ccccc12` [Example 1101, (2R)-2-(2-chlorophenyl)-N-[(cis-4-{[4-(dimethylamino)-quinazolin-2-yl]amino}cyclohexyl)methyl]-2-hydroxyacetamide], 6.70 to 7.30.

With `CN(C)c1nc(N[C@H]2CC[C@@H](CNC(=O)[C@H](O)c3ccccc3)CC2)nc2ccccc12` [Example 1102, (2R)-N-[(cis-4-{[4-(dimethylamino)quinazolin-2-yl]amino}cyclohexyl)methyl]-2-hydroxy-2-phenylacetamide], the pIC50 was less than 6.70. As to `CN(C)c1nc(N[C@H]2CC[C@@H](CNC(=O)[C@@H](O)c3ccccc3)CC2)nc2ccccc12` [Example 1103, (2S)-N-[(cis-4-{[4-(dimethylamino)quinazolin-2-yl]amino}cyclohexyl)methyl]-2-hydroxy-2-phenylacetamide], the pIC50 is less than 6.70. The value for `CN(C)c1nc(N[C@H]2CC[C@@H](NC(=O)[C@H](O)c3cccc(Cl)c3)CC2)nc2ccccc12` [Example 1111, (2R)-2-(3-chlorophenyl)-N-(cis-4-{[4-(dimethylamino)-quinazolin-2-yl]amino}cyclohexyl)-2-hydroxyacetamide] was more than 7.30; that for `CN(C)c1nc(N[C@H]2CC[C@@H](NC(=O)[C@@H](O)c3ccccc3Cl)CC2)nc2ccccc12` [Example 1114, (2S)-2-(2-chlorophenyl)-N-(cis-4-{[4-(dimethylamino)quinazolin-2-yl]amino}cyclohexyl)-2-hydroxyacetamide] was more than 7.30. To `COc1cc(OC)cc(C(=O)NC[C@@H]2CC[C@H](Nc3nc(N(C)C)c4ccccc4n3)C2)c1` [Example 1120, N-[((1R,3S)-3-{[4-(dimethylamino)quinazolin-2-yl]amino}cyclopentyl)methyl]-3,5-dimethoxybenzamide] belongs more than 7.30; to `CN(C)c1nc(N[C@H]2CC[C@@H](CNC(=O)c3ccc(Cl)cc3)C2)nc2ccccc12` [Example 1121, 4-chloro-N-[((1R,3S)-3-{[4-(dimethylamino)quinazolin-2-yl]amino}cyclopentyl)methyl]benzamide], 6.70 to 7.30. As for `CN(C)c1nc(N[C@H]2CC[C@@H](CNC(=O)c3cccc(Cl)c3)C2)nc2ccccc12` [Example 1122, 3-chloro-N-[((1R,3S)-3-{[4-(dimethylamino)quinazolin-2-yl]amino}cyclopentyl)methyl]benzamide], the pIC50 was more than 7.30. With `CN(C)c1nc(N[C@H]2CC[C@@H](CNC(=O)c3c(Cl)cc(Cl)cc3Cl)C2)nc2ccccc12` [Example 1123, 2,4,6-trichloro-N-[((1R,3S)-3-{[4-(dimethylamino)quinazolin-2-yl]amino}cyclopentyl)methyl]benzamide], the pIC50 is more than 7.30.

`CN(C)c1nc(N[C@H]2CC[C@@H](CNC(=O)c3ccc(C(F)(F)F)c(F)c3)C2)nc2ccccc12` [Example 1124, N-[((1R,3S)-3-{[4-(dimethylamino)quinazolin-2-yl]amino}-cyclopentyl)methyl]-3-fluoro-4-(trifluoromethyl)benzamide]: the pIC50 is less than 6.70. Consider `CN(C)c1nc(N[C@H]2CC[C@@H](CNC(=O)c3ccc(C(F)(F)F)cc3F)C2)nc2ccccc12` [Example 1125, N-[((1R,3S)-3-{[4-(dimethylamino)quinazolin-2-yl]amino}-cyclopentyl)methyl]-2-fluoro-4-(trifluoromethyl)benzamide], for which the pIC50 was less than 6.70. In the case of `CN(C)c1nc(N[C@H]2CC[C@@H](CNC(=O)c3cc(C(F)(F)F)ccc3C(F)(F)F)C2)nc2ccccc12` [Example 1126, N-[((1R,3S)-3-{[4-(dimethylamino)quinazolin-2-yl]amino}cyclopentyl)methyl]-2,5-bis(trifluoromethyl)benzamide], the pIC50 is less than 6.70. `CN(C)c1nc(N[C@H]2CC[C@@H](CNC(=O)c3cccc(C(F)(F)F)c3)C2)nc2ccccc12` [Example 1127, N-[((1R,3S)-3-{[4-(dimethylamino)quinazolin-2-yl]amino}cyclopentyl)methyl]-3-(trifluoromethyl)benzamide]: the pIC50 is more than 7.30.
